Assay results reported in patent US20170050966A1, “INHIBITING THE TRANSIENT RECEPTOR POTENTIAL A1 ION CHANNEL” (HYDRA BIOSCIENCES, INC., priority 2014, published 2017).
In brackets after ≈: the same amount, converted by molar mass. Where two headings read alike, the source gives them in different places.

Tests used:
[1] = Solubility in Normal Ringer Solution; type: physicochemical; conditions: aqueous buffer, kinetic from dmso stock, pH 7.4, room temperature
Description: Compounds of the invention were also tested for solubility in Normal Ringer Solution. […] Following vortex and incubation for 40 minutes at room temperature, solutions were filtered, quenched with acetonitrile, and analyzed by liquid chromatography. Solubility limits were determined by comparison to a standard curve. […] Solubility is reported as “greater than” if the observed increase between the last 2 dilutions tested is greater than 2-fold.

[2] = Metabolic stability in liver microsomes; type: in vitro ADME, human; conditions: 1 μM test compound; for half-life at 1 μM: human, liver microsomes, 37° C.
Description: (§1) Metabolic stability of the compounds of Formula (I) was determined by standard liver microsome assays. Briefly, metabolic stability was tested by adding the compound to be tested dissolved in DMSO to human, dog, or rat liver microsomes. Assays were run with a starting concentration of 1 μM test compound. The reaction was initiated by addition of nicotinamide adenine dinucleotide phosphate[…] (NADPH) regeneration components at 37° C., at which time an aliquot was immediately quenched in an ice-cold acetonitrile/methanol/water solution. Reaction mixture was incubated at 37° C. on a shaker, and additional aliquots were taken at 7, 15, 30 and 60 minutes. Following quench and centrifugation, samples were analyzed on HPLC/MS/MS.

[3] = Metabolic stability in liver microsomes; type: in vitro ADME
Description: as §1

[4] = Oral bioavailability of solutions in non-fasted rats; conditions: rat, in vivo, oral solution, read-out: Rat % F
Description: Early bioavailability studies in rat were conducted with solutions of the compounds of the invention. Compounds were delivered via oral administration as a solution in an appropriate excipient. Example formulations include, but are not limited to: 4% DMSO, 10% Solutol HS-15, and 86% water or 4% DMSO, 5% Tween, 25% Cremophor EL. Target concentrations were typically 1 mg/mL, and administered via oral gavage to non-fasted rats. The absolute bioavailability is the dose-corrected area under the curve (AUC) non-intravenous divided by the dose corrected AUC intravenous. The formula for calculating F for a drug administered by the oral route (PO) is given below:
% F=AUC PO×Dose IV/AUC IV×Dose PO

[5] = tested on: formalin model in the rat; assay: Formalin-induced pain test; type: in vivo
Description: Compound 2 was tested in the formalin-induced pain test reported by Dubuisson et al., Pain (1977) December; 4(2):161-74. Dubuisson et al describe a method for assessing pain and analgesia in rats and cats. Briefly, dilute formalin (50 μL of 3% formalin) is injected into the plantar surface of the hind paw of a rat. […] The initial phase (Phase I: 0-5 min) is thought to have a significant component that is dependent upon direct activation of afferent fibers by formalin and functional TRPA1 (McNamara et al., 2007). The individual responsible for counting the pain behaviors in a particular study is blinded to the treatment groups.
Investigators studied oral administration of Compound 2 at 1, 3 and 10 mg/kg on pain behaviors in the formalin model in the rat. Compound 2 was prepared as solutions in 4% DMSO, 10% Solutol HS15, 86% WFI. Animals were dosed orally with Vehicle (4% DMSO, 10% Solutol, 86% WFI), or Compound 2 at 1, 3 or 10 mg/kg one hour prior to intraplantar formalin. […] (n=8 per group) (*=p<0.05, **=p<0.01, *** p<0.001: 1-tailed T-test)
A reduction in the duration of pain behaviors was also observed with Compound 4 from 0-5 minutes post-formalin administration. Using the methods described above for the formalin assay, Compound 4 was formulated as a solution in 4% DMSO; 5% Tween-80; 20% Cremophor EL; and 71% WFI and administered by oral gavage to rats.
Using the methods described above for the formalin assay, Compound 4 was formulated as a suspension in 0.5% methylcellulose and administered by oral gavage to rats.
The persistence of the response was also studied. Compound 2 was prepared as a solution in 4% DMSO, 10% Solutol HS15, and 86% WFI. Rats were treated with 10 mg/kg of oral doses of Compound 2 or with the vehicle (PO).

[6] = dog liver microsomes, female, read-out: Female Half-Life
[7] = rat liver microsomes, both sexes, read-out: Half-Life Both sexes
[8] = rat liver microsomes, male, read-out: Male Half-Life
[9] = 10 mg/kg PO, 1 Hr pre-treatment
[10] = 10 mg/kg PO, 2 Hr pre-treatment
[11] = 10 mg/kg PO, 4 Hr pre-treatment
[12] = 10 mg/kg PO, 6 Hr pre-treatment
[13] = 10 mg/kg PO, 15 Min pre-treatment
[14] = 10 mg/kg PO, 24 Hr pre-treatment
[15] = 10 mg/kg PO, 30 Min pre-treatment
[16] = 1 mpk PO, one hour prior to formalin
[17] = 3 mpk PO, one hour prior to formalin
[18] = 10 mpk PO, one hour prior to formalin
[19] = 1 mpk PO, solution in DMSO/Tween-80/Cremophor EL/WFI
[20] = 1 mpk PO, suspension in 0.5% methylcellulose

C[C@@H](C(=O)Nc1ccnc(-c2cnc(N3CCC[C@H]3C(F)(F)F)nc2)n1)n1cnc2c1c(=O)n(C)c(=O)n2C [Compound 2, (S)-2-(1,3-dimethyl-2,6-dioxo-2,3-dihydro-1H-purin-7(6H)-yl)-N-(2′-((S)-2-(trifluoromethyl)pyrrolidin-1-yl)-[2,5′-bipyrimidin]-4-yl)propanamide]
solubility at 40 min [1]: ~32.4 µM (≈ 17.6 µg/mL)
Human Liver Microsomes Hepatic Clearance [2]: 8 mL/min/kg
half-life at 1 μM [2]: 43 min
half-life at 1 μM ([3]; dog liver microsomes, both sexes, read-out: Half-Life both sexes): 22.9 min
half-life at 1 μM [3, 6]: 22.9 min
half-life at 1 μM [3, 7]: > 60 min
Male Hepatic Clearance ([3]; rat liver microsomes, male): 2 mL/min/kg
half-life at 1 μM [3, 8]: 787 min
bioavailability [4]: 100%
reduction of pain behaviors from 0-5 minutes ([5]; 1 mg/kg PO, vs vehicle, did not reach statistical significance): ~14%
decrease in the duration of pain behaviors from 0-2 minutes ([5]; 1 mg/kg PO, vs vehicle, not statistically significant): ~14%
decrease in formalin-induced pain behaviors from 0-2 minutes ([5]; 3 mg/kg PO, vs vehicle): ~72%
reduction of duration of pain behaviors from 0-5 minutes ([5]; 3 mg/kg PO, vs vehicle): ~46%
Duration 0-2 min [5, 9]: 14.50 s
Duration 0-5 min [5, 9]: 146.14 s
Duration 0-2 min [5, 10]: 12.00 s
Duration 0-5 min [5, 10]: 118.10 s
Duration 0-2 min [5, 11]: 19.00 s
Duration 0-5 min [5, 11]: 135.84 s
Duration 0-2 min [5, 12]: 22.75 s
Duration 0-5 min [5, 12]: 156.61 s
Duration 0-2 min [5, 13]: 82.50 s
Duration 0-5 min [5, 13]: 185.43 s
Duration 0-2 min [5, 14]: 96.63 s
Duration 0-5 min [5, 14]: 197.15 s
Duration 0-2 min [5, 15]: 62.50 s
Duration 0-5 min [5, 15]: 181.40 s
decrease in the duration of formalin-induced pain behaviors 0-2 minutes ([5]; 10 mg/kg PO, 15 minute to 6 hour pre-treatment, vs vehicle): 30-87%
duration of formalin-mediated pain behaviors ([5]; 10 mg/kg PO, 30 minutes to 6 hours prior to formalin injection): significantly decreased the duration of formalin-mediated pain behaviors
decrease in formalin-induced pain behaviors from 0-2 minutes ([5]; 10 mg/kg PO, vs vehicle): ~89%
reduction of duration of pain behaviors from 0-5 minutes ([5]; 10 mg/kg PO, vs vehicle): ~60%
Duration 0-2 min [5, 16]: 73.00 s
Duration 0-5 min [5, 16]: 157.38 s
Duration 0-2 min [5, 17]: 23.25 s
Duration 0-5 min [5, 17]: 99.00 s
Duration 0-2 min [5, 18]: 9.25 s
Duration 0-5 min [5, 18]: 73.50 s

C[C@@H](C(=O)Nc1ccnc(-c2cnc(N3CCC[C@@H]3C(F)(F)F)nc2)n1)n1cnc2c1c(=O)n(C)c(=O)n2C [Compound 4, (S)-2-(1,3-dimethyl-2,6-dioxo-2,3-dihydro-1H-purin-7(6H)-yl)-N-(2′-((R)-2-(trifluoromethyl)pyrrolidin-1-yl)-[2,5′-bipyrimidin]-4-yl)propanamide]
solubility at 40 min [1]: > 31.3 µM
half-life at 1 μM [2]: 19.8 min
half-life at 1 μM [3, 7]: 72.6 min
bioavailability [4]: 100%
Duration 0-2 min [5, 19]: 76.13 s
Duration 0-5 min [5, 19]: 197.88 s
Duration 0-2 min [5, 20]: 80.38 s
Duration 0-5 min [5, 20]: 186.25 s
Duration 0-2 min ([5]; 3 mpk PO, solution): 45.25 s
Duration 0-5 min ([5]; 3 mpk PO, solution): 175.88 s
Duration 0-2 min ([5]; 3 mpk PO, suspension): 51.13 s
Duration 0-5 min ([5]; 3 mpk PO, suspension): 163.25 s
Duration 0-2 min ([5]; 10 mpk PO, solution): 47.13 s
Duration 0-5 min ([5]; 10 mpk PO, solution): 191.00 s
Duration 0-2 min ([5]; 10 mpk PO, suspension): 38.13 s
Duration 0-5 min ([5]; 10 mpk PO, suspension): 144.25 s

C[C@@H](C(=O)Nc1ccnc(-c2cnc(N3CCCC3(C)C)nc2)n1)n1cnc2c1c(=O)n(C)c(=O)n2C [Compound 1, (S)-2-(1,3-dimethyl-2,6-dioxo-2,3-dihydro-1H-purin-7(6H)-yl)-N-(2′-(2,2-dimethylpyrrolidin-1-yl)-[2,5′-bipyrimidin]-4-yl)propanamide]
solubility at 40 min [1]: > 14.3 µM
Human Liver Microsomes Hepatic Clearance [2]: 16 mL/min/kg
half-life at 1 μM [2]: 9 min
Female Hepatic Clearance ([3]; dog liver microsomes, female): 18 mL/min/kg
half-life at 1 μM [3, 6]: 18 min
Male Hepatic Clearance ([3]; dog liver microsomes, male): 22 mL/min/kg
half-life at 1 μM ([3]; dog liver microsomes, male, read-out: Male Half-Life): 10 min
half-life at 1 μM [3, 7]: 39.2 min
Female Hepatic Clearance ([3]; rat liver microsomes, female): 20 mL/min/kg
half-life at 1 μM ([3]; rat liver microsomes, female, read-out: Female Half-Life): 46 min
Male Hepatic Clearance ([3]; rat liver microsomes, male): 29 mL/min/kg
half-life at 1 μM [3, 8]: 22 min
bioavailability [4]: 46%
Duration 0-2 min ([5]; 1 mg/kg IV): 35.50 s
Duration 0-5 min ([5]; 1 mg/kg IV): 153.25 s
Duration 0-2 min ([5]; 3 mg/kg IV): 6.25 s
Duration 0-5 min ([5]; 3 mg/kg IV): 111.25 s
